Measured values reported in US20030149306A1, “Process for the preparation of polymorph of 4-(aryl)-1,2,3,4-tetrahydro-1-naphthale-namine derivative” (priority 2000, published 2003).
“Also recorded” adds a separate entry of the source. Where a name gives a salt, the structure may show the parent alone. One block for each molecule: values may come before it.

What was measured:
[1] = from a pharmaceutical formulation; cited from earlier work
[2] = compared among Forms I to V; cited from earlier work
[3] = solid-state stability of Form V (Infrared spectrum KBr and X-ray diffractogram) under storage, grinding and heating; assay type: physicochemical
Method: For example, it was stable for 3 months at 40° C. and 75% relative humidity or when subjected to grinding in a pestle and mortar or when heated upto 140° C. for 3 hours.
No change in Infrared spectrum (KBr) and X-ray diffractogram was observed after 3 months at 40° C. and 75% relative humidity or when subjected to grinding in a pestle and mortar or when heated upto 140° C. for 3 hours.

[4] = as compared to Form I; cited from earlier work

Compound: CN[C@H]1CC[C@@H](c2ccc(Cl)c(Cl)c2)c2ccccc21 [Form I, hydrochloride salt of (1S,4S) N-methyl-4-(3,4-dichlorophenyl)-1,2,3,4-tetrahydro-1-naphthalenamine]
dissolution rate with respect to the desired bioavailability [1]: dissolves too slowly
thermodynamic stability among crystalline forms [2]: most thermodynamically stable form; also recorded: most stable crystalline form

stability (change in Infrared spectrum (KBr) and X-ray diffractogram) ([3]; 3 months at 40° C. and 75% relative humidity): stable
stability (change in Infrared spectrum (KBr) and X-ray diffractogram) ([3]; 3 months at 40° C. and 75% relative humidity, listed as Example 1): No change
stability (change in Infrared spectrum (KBr) and X-ray diffractogram) ([3]; heated upto 140° C. for 3 hours): stable
stability (change in Infrared spectrum (KBr) and X-ray diffractogram) ([3]; heated upto 140° C. for 3 hours, listed as Example 1): No change
stability (change in Infrared spectrum (KBr) and X-ray diffractogram) ([3]; subjected to grinding in a pestle and mortar): stable
stability (change in Infrared spectrum (KBr) and X-ray diffractogram) ([3]; subjected to grinding in a pestle and mortar, listed as Example 1): No change
Compound: CN[C@H]1CC[C@@H](c2ccc(Cl)c(Cl)c2)c2ccccc21 [Form V, hydrochloride salt of (1S,4S) N-methyl-4-(3,4-dichlorophenyl)-1,2,3,4-tetrahydro-1-naphthalenamine]

Compound: CN[C@H]1CC[C@@H](c2ccc(Cl)c(Cl)c2)c2ccccc21 [Example T1, (1S, 4S) N-methyl-4-(3,4-dichlorophenyl)-1,2,3,4-tetrahydro-1-naphthalenamine]
bioavailability [4]: much-improved bioavailability
